Measurements published in paper PMC11537999, “Identification of human pregnane X receptor antagonists utilizing a high-throughput screening platform” (Frontiers in Pharmacology, 2024).

Key:
hPXR = molecular target: T1, hPXR (Homo sapiens, UniProt O75469); experiment: Pharmacological inhibition (IC50 shift) assay with varying rifampicin in HepG2-CYP3A4-hPXR cells; type: cell-based; settings: for shift in IC50 values with increasing rifampicin (in words): 5 μM, 7.5 µM or 10 µM rifampicin; for decrease in potency: co-treated with 2 µM versus 10 µM rifampicin; for IC50: triplicate
T1 construct: expressed in transfected cells; provided by Dr. Taosheng Chen, St. Jude
T1 sequence (O75469 1-434): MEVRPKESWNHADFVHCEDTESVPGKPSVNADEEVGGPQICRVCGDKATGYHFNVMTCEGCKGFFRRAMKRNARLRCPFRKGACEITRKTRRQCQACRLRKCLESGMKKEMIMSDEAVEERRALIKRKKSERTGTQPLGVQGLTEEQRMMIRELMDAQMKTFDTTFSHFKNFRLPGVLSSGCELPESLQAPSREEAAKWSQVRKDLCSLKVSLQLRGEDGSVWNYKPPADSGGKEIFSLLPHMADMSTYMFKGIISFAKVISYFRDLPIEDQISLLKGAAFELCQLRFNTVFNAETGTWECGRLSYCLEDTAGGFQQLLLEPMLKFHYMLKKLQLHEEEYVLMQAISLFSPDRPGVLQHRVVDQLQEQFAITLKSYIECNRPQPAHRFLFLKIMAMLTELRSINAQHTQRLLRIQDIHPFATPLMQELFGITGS
Protocol: HepG2-CYP3A4-hPXR cells were dispensed into tissue culture treated 1536-well white assay plates (Greiner Bio-One North America, Monroe, NC) using a Multidrop Combi (Thermo Fisher Scientific Inc., Waltham, Massachusetts) at 2,500 cells/4 µL/well. The cell suspension was prepared using new assay media, which contained phenol red-free DMEM (GIBCO), 5% charcoal/dextran-treated FBS (Invitrogen), 1 mM sodium pyruvate (Invitrogen), 2 mM L-Glutamine (Invitrogen), and 100 U/mL of Penicillin and 100 μg/mL of Streptomycin (Invitrogen). All plates were then incubated for 4 h in a 37°C and 5% CO2 incubator. […] In the primary screen, each compound was tested at 7 concentrations ranging from 46 μM to 1.5 nM. 1 μL of rifampicin, a known PXR agonist, was also co-treated in each well, generating a final concentration of 2 μM, using a Flying Reagent Dispenser (Aurora Discovery, Carlsbad, California). All assay plates were placed in an incubator at 37°C with 5% CO2 for 23 h. Following the incubation period, 1 µL of CellTiter-Fluor reagent (Promega, Madison, Wisconsin) was added to each well and all assay plates were placed back into the incubator set at 37°C and 5% CO2 for 1 h. Fluorescence intensity at 540 nm was measured following excitation at 405 nm using a ViewLux plate reader (Perkin Elmer, Shelton, Connecticut), in order to assess cell viability following treatment. Directly after the fluorescent read, 4 μL of ONE-Glo Luciferase reagent (Promega, Madison, Wisconsin) was added to each well using a Flying Reagent Dispenser, and plates were left to sit at room temperature for 30 min. The luminescence of each plate was then measured using the ViewLux plate reader and data were expressed as relative luminescence units. Gross assay performance was assessed by calculating quality metrics, such as coefficient of variance (CV), signal-to-background ratio (S/B), and Z′ factor, a measure of statistical effect size frequently used to judge whether an assay can be scaled up to a large high-throughput screen ([Zhang et al., 1999]).
Each curve was co-treated with 5 μM RIF, 7.5 μM RIF, or 10 μM RIF (a well-known PXR agonist) to determine pharmacological activity. […] Each curve was generated from a combination of all data points together.

CYP3A4 mRNA expression = experiment: Co-treatment pharmacological assay: CYP3A4 mRNA by qRT-PCR in HepaRG cells co-treated with rifampicin; type: cell-based, human; settings: for inhibition of CYP3A4 mRNA expression under rifampicin co-treatment (in words): IC50, IC70 or IC90 concentration + 5 μM rifampicin
Protocol: Fully differentiated NoSpin™ HepaRG™ cells (Lonza, Walkersville, Maryland) were seeded into 12-well collagen-coated plates (Corning) at a density of 8 × 10^5 cells/well using Williams’ E medium (ThermoFisher) supplemented with HepaRG™ thawing and plating medium supplement (Lonza), 25 U/mL penicillin, and 25 μg/mL streptomycin (Invitrogen). The cells were then placed into a 37°C and 5% CO2 incubator for 3 days including a media change before treatment. Cells were then treated with the vehicle control (final concentration of 0.1% DMSO), the positive controls, or test compounds for 24 h before harvesting.
Total RNA was extracted from the cell lysate using an RNeasy Mini kit (Qiagen) according to the manufacturer’s instructions. RNA was reverse transcribed to cDNA using a High-Capacity RNA-to-cDNA kit (Applied Biosystems). CYP3A4 and CYP2B6 mRNA expression were both measured and normalized to the glyceraldehyde-3-phosphate dehydrogenase (GAPDH) housekeeping gene. Real-time PCR was completed using a QuantStudio Real-Time PCR system (Applied Biosystems) with TaqMan probes (CYP3A4 Assay ID: Hs00604506_m1, CYP2B6 Assay ID: Hs04183483_g1, GAPDH Assay ID: Hs99999905_m1, ThermoFisher Scientific, Waltham, MA). Following amplification, induction values were calculated using the equation: Fold = 2^−ΔΔCt, where ΔCt represents the difference in number of cycles required to reach the Ct threshold between CYP3A4 or CYP2B6 and GAPDH, and ΔΔCt represents the relative change in these differences between the control (DMSO) and treatment groups. Experimental data are expressed as a mean of triplicate values ±SD. Statistical analysis was performed using one-way analysis of variance with post hoc Dunnett’s analysis. The statistical significance values were set at p < 0.05 (*), p < 0.01 (**), and p < 0.001 (***).
As previously mentioned, HepG2 cells are not metabolically competent and therefore use of HepaRG cells or human primary hepatocytes is a better choice to confirm PXR antagonists. […]

Q: With `COc1cc(-c2cn(C3CCc4c(F)cccc4N(CC(F)(F)F)C3=O)nn2)ccc1-n1cnc(C)c1` (stereo not shown) [GSM2] as the compound, how does the “shift in IC50 values with increasing rifampicin (in words)” value (hPXR) read?
A: Its value is “generated a shift in IC50 values”.

Q: And the decrease in potency (hPXR)?
A: Its decrease in potency is “more than 2 fold”.

Q: And the IC50 (hPXR; co-treated with 5 μM RIF)?
A: Its IC50 is 1.6 µM.

Q: And the IC50 (hPXR; co-treated with 7.5 μM RIF)?
A: Its IC50 is 3.32 µM.

Q: What about the IC50 (hPXR; co-treated with 10 μM RIF) of the same compound?
A: The IC50 was 5.46 µM.

Q: And the “CYP3A4 mRNA expression, average level” value (CYP3A4 mRNA expression; 15 μM compound + 5 μM rifampicin, DMSO = 1)?
A: Its value is 0.6 fold.

Q: What about the “inhibition of CYP3A4 mRNA expression under rifampicin co-treatment (in words)” value (CYP3A4 mRNA expression) of the same compound?
A: Its value is “clear concentration dependent inhibition of CYP3A4 mRNA expression”.

Q: For `CC(=O)O[C@H]1C[C@@]2(C)[C@@H](C[C@@H](O)[C@H]3[C@@]4(C)CC[C@@H](O)[C@@H](C)[C@@H]4CC[C@@]32C)/C1=C(\CCC=C(C)C)C(=O)O` [fusidic acid], which “shift in IC50 values with increasing rifampicin (in words)” value (hPXR) is on record?
A: The value was “generated a shift in IC50 values”.

Q: And the decrease in potency (hPXR)?
A: Its decrease in potency is “more than 2 fold”.

Q: And the IC50 (hPXR; co-treated with 5 μM RIF)?
A: Its IC50 is 3.46 µM.

Q: And the IC50 (hPXR; co-treated with 7.5 μM RIF)?
A: Its IC50 is 4.57 µM.

Q: What about the IC50 (hPXR; co-treated with 10 μM RIF) of the same compound?
A: Its IC50 is 7.76 µM.

Q: What about the “inhibition of CYP3A4 mRNA expression under rifampicin co-treatment (in words)” value (CYP3A4 mRNA expression) of the same compound?
A: The value was “clear concentration dependent inhibition of CYP3A4 mRNA expression”.
